{
  "source": "patent US8895599B2",
  "about": "“Lipoprotein lipase-activating compositions comprising benzene derivates” (Otsuka Pharmaceutical Factory, Inc., priority 2008, dated 2014)",
  "key": {"[1]": {"assay": "Therapeutical effect on olive oil-induced triglyceride hyperlipidemia models", "format": "in vivo", "settings": "once a day for one week, SD rats, 2 h after olive oil", "protocol": "Test of Therapeutical Effect on Olive Oil-Induced Triglyceride Hyperlipidemia Models\nTo conduct this test, 6-week-old SD rats (purchased from Charles River Japan) were used.\nAccording to the body weight of the test rats when they were 5 weeks old, the test rats were divided into test groups and a control group with 6 rats per group.\nA predetermined amount of each compound prepared in the Examples was measured and placed in an agate mortar. While 5% aqueous gum arabic solution was gradually introduced to the mortar, the compound was uniformly ground and suspended. Test samples were prepared by further adding 5% aqueous gum arabic solution gradually. Subsequently, these test samples were subjected to ultrasonic washing for 10 minutes to homogenize. Test samples were prepared as and when necessary.\nThe rats of the test groups were orally administered with the compounds of the invention such that rats received the compounds in an amount of 10, 30, or 100 mg/kg. The compounds of the invention were formulated as 5% gum arabic suspensions as described above.\nThe rats of the control group were orally administered with 5% aqueous gum arabic solution (not containing the compounds of the invention) in an amount of 5 ml/kg body weight. Administration was conducted once a day continuously for one week at a specific time of day after the rats reached 6 weeks of age. This test was performed under non-fasting conditions (rats had free access to feed and water), and the rats were fasted after the final administration of the compounds or 5% aqueous gum arabic solution.\nTwo hours after the final administration, olive oil was orally administered to the rats from both groups in an amount of 3 ml/kg body weight.\nTwo hours after the olive oil administration, blood was collected from the abdominal aorta of the rats of the respective groups using a heparinized syringe. The plasma was centrifugally separated from the blood at a temperature of 4° C., and the triglyceride level of the plasma was measured. A Hitachi 7170 automatic analyzer was used as the measuring instrument. Using the values measured from the test groups and control group, the decrease (%) in plasma triglyceride level was calculated according to the following equation: Decrease (%) in plasma triglyceride concentration=(1−E/C)×100 wherein E represents the average plasma triglyceride level in each test group; and C represents the average plasma triglyceride level in the control group."}, "[2]": {"assay": "Anti-obesity test using Zucker fatty rats", "format": "in vivo", "settings": "100 mg/kg oral, once a day over 4 weeks, relative to control group", "description": "Anti-Obesity Test Using Zucker Fatty Rats\nZucker fatty rats are obese rats discovered by Zucker et al., in 1961 as mutants among 13 M rats, which are a hybrid between 13C and M rats. These rats (fa/fa) start to appear distinctly obese from normal broods around the age of 3 weeks. As they age, the weight difference between the fatty rats and normal rats increases. Zucker fatty rats are currently kept by a variety of organizations as simple obesity models, and are readily obtainable.\nThis test was performed using this rat model to evaluate the anti-obesity action of the compounds of the invention. The preparation method of test samples and the test procedures are described below:\nThe test samples were prepared in the same manner as in Test Example 2.\nZucker fatty rats and lean rats (both from Charles River Japan) were purchased at the age of 5 weeks. They were divided into groups (10 rats per group) according to body weight when they reached 6 weeks old. After acclimatization, the administration of test samples was initiated when the rats reached 8 weeks old. Test samples were orally administered using an oral gavage so that the compounds of the invention contained in the test samples were given in an amount of 100 mg/kg body weight (test sample dosage: 5 ml/kg body weight). The test samples were administered once a day over 4 weeks at a specific time of day.\nAs a control, a group of rats were administered with the same amount of 5% aqueous gum arabic solution (5 ml/kg body weight) instead of the test samples.\nThe rats of all groups were weighed on the last day of administration. The average body weight of the rats of each test group was compared with the average body weight (standard weight) of the rats of the control group to obtain the weight variations (differences). The weight differences were expressed as percentages in relation to the standard weight. The values thus calculated are referred to as “weight change %”. When a weight difference is negative relative to the standard weight, weight change % is shown with “−” (minus).\nDuring the test period, the rats of the respective groups had free access to rat feed (“CRF-1”, manufactured by Oriental Yeast, Co., Ltd.) and water (tap water)."}, "[3]": {"assay": "Anti-obesity test using AKR mice (high-fat feed)", "format": "in vivo", "settings": "1 mg per gram of feed in high-fat feed, 7 weeks, AKR/J mice, relative to high-fat feed control group", "description": "Anti-Obesity Test Using AKR Mice\nFurthermore, this test enables the evaluation of therapeutic effects on diabetes. That is, it is reported that insulinemia can be observed in AKR/J mice when they are fed with a high-fat diet (see Am. J. Physiol. 266 (5 Pt 2), May 1994: R1423-8). It is thus known that insulinemia is strongly associated with diabetes (see, for example, J. Cardiovasc. Nurs. 16 (2), January 2002: 17-23). Therefore, this test can verify the therapeutic effects of the compounds of the present invention, used as test compounds, on diabetes.\nFor rat feed, powdered CRF-1 (Charles River Formula 1, manufactured by Oriental Yeast, Co., Ltd.) was used as normal feed. As high-fat feed, that prepared by blending CRF-1 with 18% safflower oil (Oriental Yeast, Co., Ltd.) was used.\nTest substances were blended with the high-fat feed in an amount of 1 mg per gram of CRF-1.\nAKR/J mice (from CLEA Japan, Inc.) were purchased at the age of 4 weeks. They were roughly divided into 2 groups according to body weight when the mice reached 5 weeks old. During this period, all mice were given the normal feed.\nSubsequently, the mice of one group (8 mice) continued to be fed with the normal feed (normal feed group). The mice of the other group (8×(the number of the test substances+1) mice) were given the high-fat feed (high-fat feed group).\nThe body weight of the mice of each group was measured daily. […] These mice were further reared for 7 weeks (“test substances+high-fat feed groups”; n=8 per type of test substance). Specifically, the administration of the test substances was continued for 7 weeks. A group of mice to which high-fat feed containing no test substance was continued to be given was used as a control (high-fat feed control group; n=8).\nFour hours after the feeding on the last day of the 7-week test (the last day of the test), the body weight of the mice of the “test substances+high fat feed groups” was measured. Blood was collected from the abdominal aorta of the mice using a heparinized syringe, and the leptin and insulin levels in the plasma were measured using an Elisa kit (produced by Morinaga). The mice of the other groups (normal feed group and high-fat feed control group) were reared till the last day of the test as above, and 4 hours after the last feeding on the last day of the test the measurements were performed according to the same procedures.\nThe average values of the test results (body weight, leptin level, and insulin level) of the test substances+high-fat feed groups to which the compounds prepared in Examples (Examples 10 and 58) were used as test substances (hereinbelow referred to as the “Example Compound 10-mixed high-fat feed group” and “Example Compound 58-mixed high-fat feed group”) were compared with the respective average values (standard values) of the results obtained from the mice of the high-fat control group to obtain the variations (differences). The differences were expressed as percentages in relation to the standard values. The values thus calculated were referred to as “weight change (%)”, “leptin level change (%)”, and “insulin level change (%)”. In the table below, the symbols “−” (minus) indicate that the differences are negative relative to the standard values."}},
  "data": [
    {"smiles": "COc1cc(-c2cn3ccccc3n2)ccc1OCc1ccc(Br)cc1F", "note": "[Example 58]", "values": [
      {"measurement": "Decrease in plasma triglyceride level (%)", "setting": "[1]; 10 mg/kg oral", "result": 31, "unit": "%"},
      {"measurement": "Decrease in plasma triglyceride level (%)", "setting": "[1]; 30 mg/kg oral", "result": 66, "unit": "%"},
      {"measurement": "Decrease in plasma triglyceride level (%)", "setting": "[1]; 100 mg/kg oral", "result": 79, "unit": "%"},
      {"measurement": "Weight Change (%)", "setting": "[2]", "result": "−19", "unit": "%"},
      {"measurement": "melting point", "result": "111 to 113", "unit": "°C"},
      {"measurement": "Weight Change (%)", "setting": "[3]", "result": "−10", "unit": "%"},
      {"measurement": "Insulin level change (%)", "setting": "[3]; plasma", "result": "−12", "unit": "%"},
      {"measurement": "Leptin level change (%)", "setting": "[3]; plasma", "result": "−55", "unit": "%"}
    ]}
  ]
}
